Experiments:
[1] = molecular target: Mitogen-activated protein kinase kinase kinase 12 (DLK/MAP3K12) (Homo sapiens) (UniProt Q12852); assay: Inhibition of human DLK by discoverX kinome scan assay
[2] = molecular target: Serine/threonine-protein kinase OSR1 (OXSR1) (Homo sapiens) (UniProt O95747); assay: Inhibition of human OSR1 by discoverX kinome scan assay
[3] = molecular target: Serine/threonine-protein kinase PRP4 homolog (PRPF4B) (Homo sapiens) (UniProt Q13523); assay: Inhibition of human PRP4 by discoverX kinome scan assay
Sequence of Serine/threonine-protein kinase PRP4 homolog (PRPF4B) (Homo sapiens) (Q13523 whole entry, looked up): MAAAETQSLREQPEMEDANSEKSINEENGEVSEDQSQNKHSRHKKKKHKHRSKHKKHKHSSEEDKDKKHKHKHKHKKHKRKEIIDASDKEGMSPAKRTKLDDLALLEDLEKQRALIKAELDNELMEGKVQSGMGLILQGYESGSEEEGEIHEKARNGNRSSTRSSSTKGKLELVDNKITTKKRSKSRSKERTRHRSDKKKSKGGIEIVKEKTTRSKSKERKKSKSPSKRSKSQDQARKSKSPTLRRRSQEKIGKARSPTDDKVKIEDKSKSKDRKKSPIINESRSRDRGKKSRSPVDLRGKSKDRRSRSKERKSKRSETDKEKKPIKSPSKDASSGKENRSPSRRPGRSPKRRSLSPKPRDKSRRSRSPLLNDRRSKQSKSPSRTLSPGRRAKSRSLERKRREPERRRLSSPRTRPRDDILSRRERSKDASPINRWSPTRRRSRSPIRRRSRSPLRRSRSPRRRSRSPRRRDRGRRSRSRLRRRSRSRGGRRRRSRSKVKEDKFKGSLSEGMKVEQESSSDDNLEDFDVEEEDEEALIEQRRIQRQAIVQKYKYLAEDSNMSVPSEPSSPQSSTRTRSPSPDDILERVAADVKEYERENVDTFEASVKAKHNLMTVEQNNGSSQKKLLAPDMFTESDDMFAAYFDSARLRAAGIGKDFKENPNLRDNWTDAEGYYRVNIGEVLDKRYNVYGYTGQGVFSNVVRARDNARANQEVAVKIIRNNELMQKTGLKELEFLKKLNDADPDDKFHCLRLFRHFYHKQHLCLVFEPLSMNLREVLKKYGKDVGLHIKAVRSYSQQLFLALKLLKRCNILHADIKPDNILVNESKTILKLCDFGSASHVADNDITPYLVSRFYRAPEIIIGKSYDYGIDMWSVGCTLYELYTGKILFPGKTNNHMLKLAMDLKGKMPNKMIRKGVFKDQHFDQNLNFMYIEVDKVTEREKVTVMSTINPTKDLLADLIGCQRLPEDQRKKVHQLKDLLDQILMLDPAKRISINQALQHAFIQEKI

[4] = molecular target: Mitogen-activated protein kinase kinase kinase 7 (TAK1/MAP3K7) (Homo sapiens) (UniProt O43318); assay: Inhibition of human TAK1 by discoverX kinome scan assay
Sequence of Mitogen-activated protein kinase kinase kinase 7 (TAK1/MAP3K7) (Homo sapiens) (O43318 whole entry, looked up): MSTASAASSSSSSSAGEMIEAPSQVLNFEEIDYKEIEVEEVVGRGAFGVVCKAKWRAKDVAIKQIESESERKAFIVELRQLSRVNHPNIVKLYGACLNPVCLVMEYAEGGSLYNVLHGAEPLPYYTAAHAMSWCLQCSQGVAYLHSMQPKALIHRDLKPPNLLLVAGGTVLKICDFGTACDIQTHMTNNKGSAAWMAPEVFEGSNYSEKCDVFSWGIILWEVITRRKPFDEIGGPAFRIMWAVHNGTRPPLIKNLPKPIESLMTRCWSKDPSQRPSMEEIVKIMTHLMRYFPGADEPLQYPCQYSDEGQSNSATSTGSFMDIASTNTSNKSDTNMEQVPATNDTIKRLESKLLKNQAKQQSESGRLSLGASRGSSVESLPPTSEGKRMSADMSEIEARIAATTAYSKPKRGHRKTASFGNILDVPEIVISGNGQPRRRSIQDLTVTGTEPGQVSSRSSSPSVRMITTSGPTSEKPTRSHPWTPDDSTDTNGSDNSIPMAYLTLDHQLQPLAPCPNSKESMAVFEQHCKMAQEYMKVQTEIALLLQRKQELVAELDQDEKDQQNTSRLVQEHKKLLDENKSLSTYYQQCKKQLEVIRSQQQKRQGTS

Sequence of Serine/threonine-protein kinase OSR1 (OXSR1) (Homo sapiens) (O95747 whole entry, looked up): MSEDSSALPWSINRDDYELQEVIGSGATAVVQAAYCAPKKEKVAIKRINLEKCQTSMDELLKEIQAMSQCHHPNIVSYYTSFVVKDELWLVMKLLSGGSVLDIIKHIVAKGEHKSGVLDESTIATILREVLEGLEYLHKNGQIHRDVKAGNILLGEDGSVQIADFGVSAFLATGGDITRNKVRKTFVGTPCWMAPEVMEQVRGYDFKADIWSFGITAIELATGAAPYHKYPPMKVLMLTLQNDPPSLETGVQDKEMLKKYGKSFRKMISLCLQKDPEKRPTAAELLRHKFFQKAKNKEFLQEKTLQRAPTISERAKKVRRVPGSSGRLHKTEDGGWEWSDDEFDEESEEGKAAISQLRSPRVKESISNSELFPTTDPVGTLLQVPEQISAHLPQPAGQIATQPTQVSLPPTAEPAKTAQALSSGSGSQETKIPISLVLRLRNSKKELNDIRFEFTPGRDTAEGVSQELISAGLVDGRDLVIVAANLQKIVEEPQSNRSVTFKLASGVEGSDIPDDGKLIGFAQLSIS
Sequence of Mitogen-activated protein kinase kinase kinase 12 (DLK/MAP3K12) (Homo sapiens) (Q12852 whole entry, looked up): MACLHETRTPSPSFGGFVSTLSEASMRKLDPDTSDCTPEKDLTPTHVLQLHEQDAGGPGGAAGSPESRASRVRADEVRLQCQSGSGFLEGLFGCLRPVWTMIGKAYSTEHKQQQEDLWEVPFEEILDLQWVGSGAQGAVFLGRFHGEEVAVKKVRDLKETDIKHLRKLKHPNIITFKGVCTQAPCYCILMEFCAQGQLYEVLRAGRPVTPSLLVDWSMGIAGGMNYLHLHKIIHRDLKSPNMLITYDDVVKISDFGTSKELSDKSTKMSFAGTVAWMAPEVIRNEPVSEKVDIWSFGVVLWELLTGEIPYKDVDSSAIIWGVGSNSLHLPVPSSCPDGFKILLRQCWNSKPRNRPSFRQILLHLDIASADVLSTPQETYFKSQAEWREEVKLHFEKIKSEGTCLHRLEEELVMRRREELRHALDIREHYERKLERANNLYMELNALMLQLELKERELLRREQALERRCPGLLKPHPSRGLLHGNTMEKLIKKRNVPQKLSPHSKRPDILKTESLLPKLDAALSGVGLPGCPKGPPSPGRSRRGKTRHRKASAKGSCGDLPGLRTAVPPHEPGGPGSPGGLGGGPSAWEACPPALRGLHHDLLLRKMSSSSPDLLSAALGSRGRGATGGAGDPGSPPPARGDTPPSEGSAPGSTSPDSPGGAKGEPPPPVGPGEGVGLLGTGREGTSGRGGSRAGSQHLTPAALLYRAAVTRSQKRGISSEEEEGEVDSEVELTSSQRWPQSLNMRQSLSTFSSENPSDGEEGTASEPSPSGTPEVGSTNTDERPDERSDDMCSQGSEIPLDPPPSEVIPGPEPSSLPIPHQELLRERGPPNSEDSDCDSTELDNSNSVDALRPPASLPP

IC50 [1]: > 20 µM
IC50 [2]: > 20 µM
IC50 [3]: > 20 µM
IC50 [4]: > 20 µM
SMILES: Cc1cn(CCN2CCN(c3ccccc3-c3cc(C#N)cc(C(=O)NCCCN4CCCC4)c3)CC2)c2ccccc12

Reference: BindingDB's records for PubMed 25825497 (Eli Lilly)
